Test results as given in patent publication US20230321123A1, “INHIBITORS OF PSEUDOMONAS AERUGINOSA VIRULENCE FACTOR LasB” (Helmholtz-Zentrum Für Infektionsforschung GmbH, priority 2020, published 2023).
Like-named read-outs stand apart in the source and are kept apart here.

Tests used:
MMP-2 = molecular target: T1, MMP-2 (Homo sapiens, UniProt P08253); assay: Selectivity against human off-targets: MMP-2; type: biochemical; conditions: read-out: Inhibition [%] MMP-2
T1 sequence (P08253 110-660): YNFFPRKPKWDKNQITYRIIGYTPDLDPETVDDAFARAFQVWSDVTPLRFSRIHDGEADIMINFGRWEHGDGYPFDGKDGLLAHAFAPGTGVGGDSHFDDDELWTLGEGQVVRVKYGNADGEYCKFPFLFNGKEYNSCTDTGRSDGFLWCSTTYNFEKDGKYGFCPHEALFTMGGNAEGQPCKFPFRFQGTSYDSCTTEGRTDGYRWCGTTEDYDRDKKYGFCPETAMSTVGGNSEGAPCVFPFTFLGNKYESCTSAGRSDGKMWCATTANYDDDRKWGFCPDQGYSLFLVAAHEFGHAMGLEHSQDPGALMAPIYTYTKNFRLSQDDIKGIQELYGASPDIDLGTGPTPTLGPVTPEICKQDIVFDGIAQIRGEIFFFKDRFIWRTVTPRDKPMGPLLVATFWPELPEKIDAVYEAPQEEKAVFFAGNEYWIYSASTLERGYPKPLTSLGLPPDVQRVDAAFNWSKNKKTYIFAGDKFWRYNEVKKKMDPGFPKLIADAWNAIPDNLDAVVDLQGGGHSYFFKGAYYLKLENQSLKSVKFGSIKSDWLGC
Description: (§1) The inhibition of zinc-containing human enzymes is described frequently for LasB inhibitors and poses a serious difficulty in the development of selective compounds. Particularly, the inhibition of matrix metalloproteases (MMPs) should be avoided. To further investigate this issue, three derivatives (the compounds of examples 1, 5 and 8) have been tested for their selectivity against several human off-targets, including six MMPs, ADAM17 (TACE), HDAC-3 and HDAC-8 (Table 4). The selectivity of the compounds is particularly high for MMPs and HDACs, whereas the inhibition of ADAM17 was considerably stronger.

MMP-7 = molecular target: T2, MMP-7 (Homo sapiens, UniProt P09237); assay: Selectivity against human off-targets: MMP-7; type: biochemical; conditions: read-out: Inhibition [%] MMP-7
T2 sequence (P09237 95-267): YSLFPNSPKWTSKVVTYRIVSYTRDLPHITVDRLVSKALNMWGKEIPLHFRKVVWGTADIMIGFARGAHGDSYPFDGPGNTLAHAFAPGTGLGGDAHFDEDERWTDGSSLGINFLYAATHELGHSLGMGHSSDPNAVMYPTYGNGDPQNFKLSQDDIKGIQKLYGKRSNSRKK
Description: as §1

HDAC-8 = molecular target: T3, HDAC-8 (Homo sapiens, UniProt Q9BY41); assay: Selectivity against human off-targets: HDAC-8; type: biochemical
T3 sequence (Q9BY41 1-377): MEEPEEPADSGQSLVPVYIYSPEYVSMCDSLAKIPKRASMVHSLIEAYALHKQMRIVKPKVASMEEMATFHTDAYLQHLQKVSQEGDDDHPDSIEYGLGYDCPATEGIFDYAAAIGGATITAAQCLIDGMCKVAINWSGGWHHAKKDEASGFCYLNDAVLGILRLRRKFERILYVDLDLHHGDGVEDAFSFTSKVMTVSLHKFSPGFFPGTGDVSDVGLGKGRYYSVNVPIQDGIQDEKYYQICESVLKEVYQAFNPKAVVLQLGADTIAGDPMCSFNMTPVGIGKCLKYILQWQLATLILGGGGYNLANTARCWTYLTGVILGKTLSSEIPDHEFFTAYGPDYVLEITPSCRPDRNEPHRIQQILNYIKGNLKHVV
Description: as §1

HDAC-3 = HDAC-3 (Homo sapiens, UniProt O15379); assay: Selectivity against human off-targets: HDAC-3; type: biochemical
HDAC-3, sequence (O15379 whole entry): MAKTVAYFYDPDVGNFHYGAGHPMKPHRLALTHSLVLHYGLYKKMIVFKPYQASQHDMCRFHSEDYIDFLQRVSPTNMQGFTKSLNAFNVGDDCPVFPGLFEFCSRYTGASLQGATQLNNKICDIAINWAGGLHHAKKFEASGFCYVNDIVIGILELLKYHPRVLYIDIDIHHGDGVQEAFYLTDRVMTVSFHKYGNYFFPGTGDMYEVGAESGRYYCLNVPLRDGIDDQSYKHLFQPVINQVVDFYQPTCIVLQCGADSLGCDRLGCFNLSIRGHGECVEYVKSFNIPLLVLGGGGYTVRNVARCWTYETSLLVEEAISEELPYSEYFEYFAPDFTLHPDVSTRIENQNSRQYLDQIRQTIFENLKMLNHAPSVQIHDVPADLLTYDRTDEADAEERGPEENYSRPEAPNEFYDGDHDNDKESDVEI
HDAC-3, sequence (Q9Y618 395-489 partner limits assumed): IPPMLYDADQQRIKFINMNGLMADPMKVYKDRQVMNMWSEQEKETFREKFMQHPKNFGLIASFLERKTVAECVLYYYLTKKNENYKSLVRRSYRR
Description: as §1

MMP-14 = MMP-14 (Homo sapiens, UniProt P50281); assay: Selectivity against human off-targets: MMP-14; type: biochemical; conditions: read-out: Inhibition [%] MMP-14
Description: as §1

MMP-1 = molecular target: T4, MMP-1 (Homo sapiens, UniProt P03956); assay: Selectivity against human off-targets: MMP-1; type: biochemical; conditions: read-out: Inhibition [%] MMP-1
T4 sequence (P03956 100-469): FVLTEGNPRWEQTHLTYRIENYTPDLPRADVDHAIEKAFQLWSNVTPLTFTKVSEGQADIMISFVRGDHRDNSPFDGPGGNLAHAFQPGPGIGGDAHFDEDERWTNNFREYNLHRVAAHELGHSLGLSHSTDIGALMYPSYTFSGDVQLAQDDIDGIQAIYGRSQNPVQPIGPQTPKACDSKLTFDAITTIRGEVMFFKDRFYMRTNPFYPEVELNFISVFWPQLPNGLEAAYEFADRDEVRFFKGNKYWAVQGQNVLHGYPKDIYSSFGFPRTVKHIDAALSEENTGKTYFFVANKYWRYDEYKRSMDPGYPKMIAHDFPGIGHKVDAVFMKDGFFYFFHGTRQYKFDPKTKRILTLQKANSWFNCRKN
Description: as §1

MMP-3 = MMP-3 (Homo sapiens, UniProt P08254); assay: Selectivity against human off-targets: MMP-3; type: biochemical; conditions: read-out: Inhibition [%] MMP-3
MMP-3, sequence (P08254 100-477): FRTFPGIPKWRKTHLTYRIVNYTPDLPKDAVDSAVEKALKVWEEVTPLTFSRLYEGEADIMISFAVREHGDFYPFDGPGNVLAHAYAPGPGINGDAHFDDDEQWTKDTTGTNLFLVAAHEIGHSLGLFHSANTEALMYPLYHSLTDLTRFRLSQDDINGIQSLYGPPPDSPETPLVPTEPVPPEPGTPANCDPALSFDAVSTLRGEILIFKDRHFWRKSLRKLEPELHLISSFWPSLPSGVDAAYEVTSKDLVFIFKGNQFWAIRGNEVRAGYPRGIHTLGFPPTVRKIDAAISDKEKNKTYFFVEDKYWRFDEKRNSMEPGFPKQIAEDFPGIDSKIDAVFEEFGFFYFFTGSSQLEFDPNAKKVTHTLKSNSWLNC
Description: as §1

Cytotoxicity HEK293 = type: cell-based; conditions: human
Experimental: (§2) The compounds of examples 1 and 5 were not toxic against the cell lines HepG2, HEK293 and A549 (Table 5). Additionally, the inhibitory effect against P. aeruginosa PA14 was evaluated to exclude an antibacterial effect of the compounds of the present invention. This is important as it was the aim to target virulence and not viability of the bacteria. […]

MMP-8 = MMP-8 (Homo sapiens, UniProt P22894); assay: Selectivity against human off-targets: MMP-8; type: biochemical; conditions: read-out: Inhibition [%] MMP-8
MMP-8, sequence (P22894 101-467): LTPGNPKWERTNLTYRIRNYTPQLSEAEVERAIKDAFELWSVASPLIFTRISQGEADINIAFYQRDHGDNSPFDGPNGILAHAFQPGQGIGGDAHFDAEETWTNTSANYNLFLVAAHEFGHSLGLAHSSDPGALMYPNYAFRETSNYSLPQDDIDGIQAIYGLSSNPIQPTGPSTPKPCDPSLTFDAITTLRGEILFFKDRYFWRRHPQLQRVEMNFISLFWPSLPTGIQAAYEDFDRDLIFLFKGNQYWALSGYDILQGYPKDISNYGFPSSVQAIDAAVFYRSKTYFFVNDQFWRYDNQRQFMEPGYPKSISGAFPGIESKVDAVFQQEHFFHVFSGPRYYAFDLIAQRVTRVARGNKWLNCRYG
Description: as §1

Cytotoxicity A549 = type: cell-based; conditions: human
Experimental: as §2

Cytotoxicity HepG2 = type: cell-based; conditions: human
Experimental: as §2

ADAM17 (TACE) = ADAM17 (TACE) (Homo sapiens, UniProt P78536); assay: Selectivity against human off-targets: ADAM17 (TACE); type: biochemical
ADAM17 (TACE), sequence (P78536 215-824): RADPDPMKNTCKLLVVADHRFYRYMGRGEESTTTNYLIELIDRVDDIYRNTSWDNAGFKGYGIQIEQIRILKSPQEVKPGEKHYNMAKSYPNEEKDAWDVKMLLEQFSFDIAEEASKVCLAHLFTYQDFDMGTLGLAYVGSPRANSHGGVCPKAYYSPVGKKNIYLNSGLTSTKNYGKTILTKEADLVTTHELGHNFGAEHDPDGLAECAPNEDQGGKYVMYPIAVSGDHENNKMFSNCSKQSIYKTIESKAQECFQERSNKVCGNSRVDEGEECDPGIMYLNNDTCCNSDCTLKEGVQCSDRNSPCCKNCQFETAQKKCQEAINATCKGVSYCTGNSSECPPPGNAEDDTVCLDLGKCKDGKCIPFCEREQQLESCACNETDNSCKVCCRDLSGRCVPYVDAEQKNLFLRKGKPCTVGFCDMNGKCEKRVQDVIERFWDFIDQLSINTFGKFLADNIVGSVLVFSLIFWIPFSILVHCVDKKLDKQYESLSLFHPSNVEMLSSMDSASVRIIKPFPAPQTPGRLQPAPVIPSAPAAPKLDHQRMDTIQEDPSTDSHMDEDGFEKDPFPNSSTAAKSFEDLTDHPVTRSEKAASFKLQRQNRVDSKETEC

P. aeruginosa PA14 = assay: PA14 inhibition (MIC, antibacterial effect); type: cell-based
Experimental: as §2

LasB = LasB (Pseudomonas aeruginosa, UniProt Q02RJ6); assay: biochemical; parameters: species or system P. aeruginosa
LasB, sequence (Q02RJ6 198-498): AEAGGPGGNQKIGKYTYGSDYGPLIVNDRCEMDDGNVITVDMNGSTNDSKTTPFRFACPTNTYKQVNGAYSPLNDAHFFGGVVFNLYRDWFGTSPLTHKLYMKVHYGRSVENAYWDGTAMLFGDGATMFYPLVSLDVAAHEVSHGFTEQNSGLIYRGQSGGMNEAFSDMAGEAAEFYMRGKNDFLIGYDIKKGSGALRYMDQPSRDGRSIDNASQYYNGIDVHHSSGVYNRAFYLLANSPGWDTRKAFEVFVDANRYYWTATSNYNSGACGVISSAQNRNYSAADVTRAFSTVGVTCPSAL

COX-1 = COX-1 (Homo sapiens, UniProt P23219); assay: Selectivity against off-targets: COX-1; type: biochemical
COX-1, sequence (P23219 24-599): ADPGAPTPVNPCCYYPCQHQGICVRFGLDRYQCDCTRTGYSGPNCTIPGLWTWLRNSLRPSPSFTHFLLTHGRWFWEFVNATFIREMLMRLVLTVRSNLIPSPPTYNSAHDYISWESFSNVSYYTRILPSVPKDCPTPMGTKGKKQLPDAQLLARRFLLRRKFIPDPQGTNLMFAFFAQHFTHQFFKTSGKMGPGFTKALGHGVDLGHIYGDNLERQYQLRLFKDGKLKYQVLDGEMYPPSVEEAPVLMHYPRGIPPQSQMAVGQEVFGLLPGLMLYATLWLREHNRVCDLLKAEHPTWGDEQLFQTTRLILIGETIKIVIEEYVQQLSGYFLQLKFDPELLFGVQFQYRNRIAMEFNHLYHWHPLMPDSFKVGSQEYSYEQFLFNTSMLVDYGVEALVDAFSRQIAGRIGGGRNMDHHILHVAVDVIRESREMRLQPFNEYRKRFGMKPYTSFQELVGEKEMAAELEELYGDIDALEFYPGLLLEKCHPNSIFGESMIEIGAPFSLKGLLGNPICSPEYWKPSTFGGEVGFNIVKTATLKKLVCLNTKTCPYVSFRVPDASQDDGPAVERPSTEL

[1] = Pseudomonas aeruginosa, PA14; read-out: MIC PA14

SMILES: O=C(Nc1ccccc1)C(S)Cc1ccccc1 (racemic) [Example 1, 2-Mercapto-N,3-diphenylpropanamide]
- inhibition at 100 µM (MMP-2): < 10%
- inhibition at 100 µM (MMP-7): < 10%
- IC50 (HDAC-8; read-out: IC50 HDAC-8): > 100 µM
- IC50 (HDAC-3; read-out: IC50 HDAC-3): > 100 µM
- inhibition at 100 µM (MMP-14): < 10%
- inhibition at 100 µM (MMP-1): < 10%
- inhibition at 100 µM (MMP-3): < 10%
- IC50 (Cytotoxicity HEK293; HEK293): > 100 µM
- inhibition at 100 µM (MMP-8): 34 ± 11%
- IC50 (Cytotoxicity A549; A549): > 100 µM
- IC50 (Cytotoxicity HepG2; HepG2): > 100 µM
- IC50 (ADAM17 (TACE); read-out: IC50 ADAM17 (TACE)): 2.2 ± 0.1 µM
- MIC (P. aeruginosa PA14; Pseudomonas aeruginosa, PA14, read-out: MIC PA14): > 100 µM
- IC50 (LasB; IC50 against LasB): 1.2 ± 0.1 µM

SMILES: Cc1ccc(NC(=O)C(CC(C)C)P(=O)(O)O)cc1 (centres unmarked) [Example 63, (4-Methyl-1-oxo-1-(p-tolylamino)pentan-2-yl)phosphonic acid]
- inhibition at 100 µM (MMP-2; at 100 μM): < 10%
- inhibition at 100 µM (MMP-7; at 100 μM): < 10%
- IC50 (HDAC-8): > 100 µM
- IC50 (HDAC-3): > 100 µM
- inhibition at 100 µM (MMP-14; at 100 μM): 12 ± 7%
- inhibition at 100 µM (MMP-1; at 100 μM): < 10%
- inhibition at 100 µM (MMP-3; at 100 μM): < 10%
- IC50 (Cytotoxicity HEK293; HEK293 cells): > 100 µM
- inhibition at 100 µM (MMP-8; at 100 μM): 10%
- IC50 (Cytotoxicity A549; A549 cells): > 100 µM
- IC50 (Cytotoxicity HepG2; HepG2 cells): > 100 µM
- IC50 (ADAM17 (TACE)): > 100 µM
- MIC (P. aeruginosa PA14; [1]): > 100 µM
- IC50 (LasB; IC50 against LasB): 0.051 ± 0.007 µM

SMILES: CC(C)CC(C(=O)N[C@H](c1cn(-c2ccc(Cl)c(Cl)c2)nn1)C(C)C)P(=O)(O)O (mixture of isomers) [Example 170, (1-(((S)-1-(1-(3,4-dichlorophenyl)-1H-1,2,3-triazol-4-yl)-2-methylpropyl)amino)-4-methyl-1-oxopentan-2-yl)phosphonic acid]
- inhibition at 100 µM (MMP-2; at 100 μM): < 10%
- inhibition at 100 µM (MMP-1; at 100 μM): 11%
- inhibition at 100 µM (MMP-3; at 100 μM): < 10%
- IC50 (Cytotoxicity HEK293; HEK293): > 100 µM
- IC50 (Cytotoxicity A549; A549): > 100 µM
- IC50 (Cytotoxicity HepG2; HepG2): > 100 µM
- inhibition at 100 µM (ADAM17 (TACE); at 100 μM): < 10%
- inhibition at 100 µM (COX-1): < 10%
- MIC (P. aeruginosa PA14; [1]): > 100 µM
- IC50 (LasB; IC50 against LasB (Table 16), heteropentacycles and benzannulated heteropentacycles): 60 ± 3 µM
